From PMC3162021 (PLoS ONE, 2011)
Residue numbers refer to the chain shown, from its start.

Experiments:
[1] = biological target: T1, α1 GlyR (Rattus norvegicus, UniProt P07727); test: whole-cell voltage clamp, modulation of glycine current; format: cell-based; details: positive allosteric modulator; glycine at EC10, co-applied; pH 7.4, 20-24 °C
T1 construct: gene Glra1; homomeric α1, expressed in HEK 293 cells from pCI or pcDNA3; A52, I240, G254, S296, K385 (mature numbering); K385 fits the form without the 8-residue loop insert
T1 sequence (P07727 29-449 isoform P07727-2): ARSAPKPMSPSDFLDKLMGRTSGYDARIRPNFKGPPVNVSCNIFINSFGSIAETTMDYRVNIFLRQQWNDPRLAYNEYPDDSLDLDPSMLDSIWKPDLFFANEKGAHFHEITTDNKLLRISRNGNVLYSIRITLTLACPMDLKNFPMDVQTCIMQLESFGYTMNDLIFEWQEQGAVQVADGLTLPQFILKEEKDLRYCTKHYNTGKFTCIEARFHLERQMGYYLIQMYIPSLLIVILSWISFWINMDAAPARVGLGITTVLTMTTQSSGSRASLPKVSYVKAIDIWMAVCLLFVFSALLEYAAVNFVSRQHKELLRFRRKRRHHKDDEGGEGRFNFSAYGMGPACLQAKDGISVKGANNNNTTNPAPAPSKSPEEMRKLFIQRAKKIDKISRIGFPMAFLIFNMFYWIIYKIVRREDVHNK

[2] = biological target: T2, α2 GlyR (Rattus norvegicus, UniProt P22771); test: as above; format: cell-based; details: positive allosteric modulator; glycine at EC10, co-applied; pH 7.4, 20-24 °C
T2 construct: gene Glra2; homomeric α2, expressed in HEK 293 cells; T59, A261, A303 (T59 fits splice form alpha-2A)
T2 sequence (P22771 28-452): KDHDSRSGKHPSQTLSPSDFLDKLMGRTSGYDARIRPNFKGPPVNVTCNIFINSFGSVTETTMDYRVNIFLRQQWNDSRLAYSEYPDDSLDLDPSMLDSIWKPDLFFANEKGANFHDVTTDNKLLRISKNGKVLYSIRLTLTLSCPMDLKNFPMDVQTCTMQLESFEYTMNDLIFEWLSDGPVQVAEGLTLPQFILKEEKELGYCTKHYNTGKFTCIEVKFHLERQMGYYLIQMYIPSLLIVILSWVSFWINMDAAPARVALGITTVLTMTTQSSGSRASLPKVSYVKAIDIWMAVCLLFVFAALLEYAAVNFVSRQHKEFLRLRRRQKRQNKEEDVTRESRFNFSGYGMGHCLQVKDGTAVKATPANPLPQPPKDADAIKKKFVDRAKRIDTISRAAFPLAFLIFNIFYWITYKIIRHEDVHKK

[3] = biological target: T2, α2 GlyR; test: as above; format: cell-based; details: allosteric inhibitor; glycine at EC10, co-applied; pH 7.4, 20-24 °C
[4] = tested on: T3, α2α1; test: whole-cell voltage clamp, concentration-response; format: cell-based, Rattus norvegicus; details: agonist; pH 7.4, 20-24 °C, -60 mV
T3 construct: gene Glra2; one fused subunit: α2 upstream of the TM3-4 loop (ECD to TM3), then α1 intracellular loop plus TM4; HEK 293
Text: whole-cell voltage clamp, concentration-response on α2α1

[5] = tested on: T4, α1α2; test: whole-cell voltage clamp, concentration-response; format: cell-based, Rattus norvegicus; details: agonist; pH 7.4, 20-24 °C, -60 mV
T4 construct: gene Glra1; one fused subunit: α1 upstream of the TM3-4 loop (ECD to TM3), then α2 intracellular loop plus TM4; HEK 293
Text: whole-cell voltage clamp, concentration-response on α1α2

[6] = biological target: T2, α2 GlyR; test: whole-cell voltage clamp, concentration-response; format: cell-based
Text: (§1) whole-cell voltage clamp, concentration-response on α2 GlyR

[7] = biological target: T5, α2 GlyR (Rattus norvegicus, UniProt P22771, A288G); test: whole-cell voltage clamp, concentration-response; format: cell-based
T5 construct: gene Glra2; homomeric α2, expressed in HEK 293 cells; T59, A261, A303 (T59 fits splice form alpha-2A)
T5 sequence (P22771 28-452 A288G): T2 sequence (P22771 28-452) with A261G
Text: as §1

[8] = biological target: T6, α2 GlyR (Rattus norvegicus, UniProt P22771, A288G/A330S/T86A); test: whole-cell voltage clamp, concentration-response; format: cell-based
T6 construct: gene Glra2; homomeric α2, expressed in HEK 293 cells; T59, A261, A303 (T59 fits splice form alpha-2A)
T6 sequence (P22771 28-452 T86A/A288G/A330S): T2 sequence (P22771 28-452) with T59A, A261G, A303S
Text: as §1

[9] = biological target: T7, α2 GlyR (Rattus norvegicus, UniProt P22771, A288G/T86A); test: whole-cell voltage clamp, concentration-response; format: cell-based
T7 construct: gene Glra2; homomeric α2, expressed in HEK 293 cells; T59, A261, A303 (T59 fits splice form alpha-2A)
T7 sequence (P22771 28-452 T86A/A288G): T2 sequence (P22771 28-452) with T59A, A261G
Text: as §1

[10] = biological target: T8, α2 GlyR (Rattus norvegicus, UniProt P22771, T86A); test: whole-cell voltage clamp, concentration-response; format: cell-based
T8 construct: gene Glra2; homomeric α2, expressed in HEK 293 cells; T59, A261, A303 (T59 fits splice form alpha-2A)
T8 sequence (P22771 28-452 T86A): T2 sequence (P22771 28-452) with T59A
Text: as §1

With `CCCCC/C=C\C/C=C\C/C=C\C/C=C\CCCC(=O)NCCO` [AEA] the “% potentiation at 10 μM” value [1] was “AEA, anandamide” and the “% potentiation at 10 μM” value [2] was “showed consistent positive allosteric modulation of all the GlyR isoforms”.

`CCCCC/C=C\C/C=C\C/C=C\C/C=C\CCCC(=O)NCC(=O)O` [NA-Gly] was tested, and the “% potentiation at 10 μM” value [1] was 101±11% and the “% change of current at 10 μM” value [3] was −56±5%.

Compound `NCC(=O)O` [glycine] has an EC50 [4] of 111 ± 1 µM, an EC50 [5] of 86 ± 3 µM and an EC50 [6] of 120 ± 6 µM. It also gave an EC50 [7] of 217 ± 6 µM, an EC50 [8] of 102 ± 2 µM and an EC50 [9] of 76 ± 2 µM. For the same compound, the EC50 [10] was 63 ± 1 µM.
